The source of these data is patent US9447028B2, “Therapeutic aryl-amido-aryl compounds and their use” (King's College London, priority 2009, dated 2016).

Bounds are passed on as bounds.

Assay type in all cases: cell-based
For one test, the target named is T1, RARγ (Homo sapiens, UniProt P13631).
T1 construct: gal4 (fusion partner); expressed in transfected cells; host or cells: COS-7
T1 sequence (P13631 185-419 limits assumed): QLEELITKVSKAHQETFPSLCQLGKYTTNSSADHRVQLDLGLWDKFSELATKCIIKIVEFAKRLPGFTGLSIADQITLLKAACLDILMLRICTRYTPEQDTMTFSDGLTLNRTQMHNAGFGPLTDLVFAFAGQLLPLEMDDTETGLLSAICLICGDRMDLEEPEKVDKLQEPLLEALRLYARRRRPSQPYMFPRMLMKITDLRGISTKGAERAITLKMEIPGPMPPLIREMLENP
The test can be described thus: Transactivation assay for RAR gamma (gal4-RAR fusion, luciferase reporter, COS-7 cells). As to conditions: ratio of test compound EC50 to that of atRA; inactive = no agonist action at the highest concentration tested. As for the experimental part:
(§1) Transcriptional transactivation assays were performed with gal4 fusion receptor constructs, created using each of the RAR ligand binding domains, co-transfected with the pFR-luc (Stratagene™) reporter construct in COS-7 cells.
(§2) Briefly, on day 1, 96 well plates were seeded with 8000 cells per well then left to recover overnight. On day 2, the cells were co-transfected with 100 ng of reporter plasmid and 10 ng of the appropriate receptor plasmid per well using lipofectamine (Invitrogen™). On day 3, the lipofectamine containing media was replaced by a DMEM without phenol red, followed by the addition of test compound dissolved in 1 μL of DMSO to each well's 100 μL total volume. Finally, on day 4, the cells were lysed and their luciferase substrate was provided by the BrightGlo™ reagent (Promega™), the plates were then read on the MicroBeta TriLux™ (Perkin Elmer™).
(§3) Where replicate data has been generated, the data are quoted as a ratio of the mean EC50 from the separate experiments.
(In a reporter assay the amount or activity of a reporter protein is the signal.)

A further test has as its target T2, RARα (Homo sapiens, UniProt P10276).
T2 construct: gal4 (fusion partner); expressed in transfected cells; host or cells: COS-7
T2 sequence (P10276 183-417 limits assumed): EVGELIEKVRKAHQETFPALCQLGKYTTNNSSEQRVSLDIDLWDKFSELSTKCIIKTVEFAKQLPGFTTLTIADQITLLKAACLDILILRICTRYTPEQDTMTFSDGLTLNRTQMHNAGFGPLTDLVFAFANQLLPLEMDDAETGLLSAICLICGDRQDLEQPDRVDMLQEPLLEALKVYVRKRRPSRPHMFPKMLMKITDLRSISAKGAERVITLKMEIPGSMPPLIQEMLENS
Put plainly: Transactivation assay for RAR alpha (gal4-RAR fusion, luciferase reporter, COS-7 cells). The conditions noted are these: for RARα/RARβ ratio (*): fold-selectivity for RARα over RARβ; for RARα activity ratio: ratio of test compound EC50 to that of atRA on the same plate; for Improvement (RARα activity ratio) / Improvement (RARα/RARβ ratio): compared with XXX-03. As for the experimental part: as §1, §2, §3

In a further test the target is T3, RARβ (Homo sapiens, UniProt P10826).
T3 construct: gal4 (fusion partner); expressed in transfected cells; host or cells: COS-7
T3 sequence (P10826 183-417 limits assumed): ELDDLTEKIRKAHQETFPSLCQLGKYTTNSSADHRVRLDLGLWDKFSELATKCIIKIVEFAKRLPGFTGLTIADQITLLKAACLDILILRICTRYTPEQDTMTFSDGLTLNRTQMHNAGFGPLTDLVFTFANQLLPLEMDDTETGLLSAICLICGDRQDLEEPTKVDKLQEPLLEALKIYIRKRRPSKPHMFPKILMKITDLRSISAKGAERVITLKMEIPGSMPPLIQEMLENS
The test can be described thus: Transactivation assay for RAR beta (gal4-RAR fusion, luciferase reporter, COS-7 cells). As to conditions: ratio of test compound EC50 to that of atRA; inactive = no agonist action at the highest concentration tested. The procedure:
as §1, §2, §3

On to `COC(=O)c1ccc(NC(=O)c2cc(Cl)c(OC3CCCC3)c(Cl)c2)cc1` [AAA-002, Methyl 4-(3,5-dichloro-4-(cyclopentyloxy)benzamido)benzoate], for which the RARγ activity ratio result on RARγ was “inactive”. For the same compound, at RARα, the “RARα/RARβ ratio (*)” value worked out at 58.0 and the RARα activity ratio is recorded as 50. On RARβ, the RARβ activity ratio is recorded as 2900.
As for `CCCOc1c(Cl)cc(C(=O)Nc2ccc(C(=O)O)cc2)cc1Cl` [AAA-003, 4-(3,5-Dichloro-4-propoxybenzamido)benzoic acid], the RARγ activity ratio at RARγ came to 1200. Besides, on RARα, the “Improvement (RARα activity ratio)” value is recorded as ~6.0-fold, the “Improvement (RARα/RARβ ratio)” value is listed as ~1.3-fold and the “RARα/RARβ ratio (*)” value came out at 9.3. Besides, the RARβ activity ratio on RARβ amounted to 139.
With `CC(C)Oc1c(Cl)cc(C(=O)Nc2ccc(C(=O)O)cc2)cc1Cl` [AAA-004, 4-(3,5-Dichloro-4-isopropoxybenzamido)benzoic acid], the RARγ activity ratio at RARγ amounted to 820. Moreover, on RARα, the “Improvement (RARα activity ratio)” value is recorded as ~13-fold and the “Improvement (RARα/RARβ ratio)” value was ~29-fold. Besides, at RARβ, the RARβ activity ratio is reported as 1420.
In the same order, the values of `O=C(O)c1ccc(NC(=O)c2cc(Cl)c(OCc3ccccc3)c(Cl)c2)cc1` [AAA-005, 4-(4-(Benzyloxy)-3,5-dichlorobenzamido)benzoic acid] are 3770, ~1.3-fold, ~7.4-fold and 3570.
With `COc1cc(C(=O)Nc2ccc(C(=O)O)cc2)cc(Cl)c1OC1CCCC1` [AAA-006, 4-(3-Chloro-4-(cyclopentyloxy)-5-methoxybenzamido)benzoic acid], the RARγ activity ratio on RARγ amounted to 5840. Besides, the RARβ activity ratio on RARβ is 1054.
Consider `CCOc1c(Cl)cc(C(=O)Nc2ccc(C(=O)O)c(F)c2)cc1Cl` [AAA-007, 4-(3,5-Dichloro-4-ethoxybenzamido)-2-fluorobenzoic acid], for which the RARγ activity ratio entry on RARγ was “inactive”. In addition, the RARβ activity ratio on RARβ stood at 2010.
In the same order, the values of `CCOc1cc(C(=O)Nc2ccc(C(=O)O)cc2)cc(OC(C)C)c1OCC` [AAA-009, 4-(3,4-Diethoxy-5-isopropoxybenzamido)benzoic acid] are 960 and 2450.
`O=C(O)c1ccc(NC(=O)c2cc(Cl)c(OCC3CC3)c(Cl)c2)cc1` [AAA-010, 4-(3,5-Dichloro-4-(cyclopropylmethoxy)benzamido)benzoic acid]: the RARγ activity ratio result on RARγ is “inactive”. In addition, at RARα, the “Improvement (RARα activity ratio)” value is given as ~0.9-fold and the “Improvement (RARα/RARβ ratio)” value is given as ~3.5-fold. In addition, the RARβ activity ratio at RARβ is reported as 2530.
In the same order, the values of `O=C(O)c1ccc(NC(=O)c2cc(Cl)c(OC3CCC3)c(Cl)c2)cc1` [AAA-011, 4-(3,5-Dichloro-4-cyclobutoxybenzamido)benzoic acid] are 21800, ~2.6-fold, ~12-fold and 2960.
`O=C(O)c1ccc(NC(=O)c2cc(Cl)c(OCc3ccncc3)c(Cl)c2)cc1` [AAA-012, 4-(3,5-Dichloro-4-(pyridin-4-ylmethoxy)benzamido)benzoic acid]: on RARγ, the RARγ activity ratio entry was “inactive”. At RARα, the “RARα/RARβ ratio (*)” value amounted to 2.4 and the RARα activity ratio is given as 533. In addition, the RARβ activity ratio on RARβ is 1300.
In the same order, the values of `CCOc1c(Cl)cc(NC(=O)c2ccc(C(=O)O)cc2)cc1Cl` [AAA-013, 4-(3,5-Dichloro-4-ethoxyphenylcarbamoyl)benzoic acid] are “inactive”, 11.8, 30 and 355.
In the same order, the values of `CCOc1c(Br)cc(NC(=O)c2ccc(C(=O)O)cc2)cc1Br` [AAA-014, 4-(3,5-Dibromo-4-ethoxyphenylcarbamoyl)benzoic acid] are “inactive”, 23.3, 58 and 1350.
For `CCOc1c(C(F)(F)F)cc(NC(=O)c2ccc(C(=O)O)cc2)cc1C(F)(F)F` [AAA-015, 4-(4-Ethoxy-3,5-bis(trifluoromethyl)phenylcarbamoyl)benzoic acid], at RARγ, the RARγ activity ratio entry is “inactive”. At RARβ, the RARβ activity ratio is 540.
For `CCOc1c(Cl)cc(C(=O)Nc2ccc(C(N)=O)cc2)cc1Cl` [AAA-016, N-(4-Carbamoylphenyl)-3,5-dichloro-4-ethoxybenzamide], the RARα activity ratio at RARα amounted to 500.
For the compound `CCOc1c(Cl)cc(C(=O)Nc2ccc(C(=O)OC)c(Cl)c2)cc1Cl` [AAA-017, Methyl 4-(3,5-dichloro-4-ethoxybenzamido)-2-chlorobenzoate], on RARα, the “RARα/RARβ ratio (*)” value is given as over 500 and the RARα activity ratio was 140. The RARβ activity ratio entry on RARβ was “inactive”.
As to `CCOc1c(Cl)cc(C(=O)Nc2ccc(C(=O)O)c(Cl)c2)cc1Cl` [AAA-018, 2-Chloro-4-(3,5-dichloro-4-ethoxybenzamido)benzoic acid], on RARγ, the RARγ activity ratio result was “inactive”. Moreover, at RARα, the “RARα/RARβ ratio (*)” value is 64.0 and the RARα activity ratio worked out at 151. Besides, the RARβ activity ratio at RARβ is 9660.
Regarding `CCOc1c(Cl)cc(C(=O)Nc2ccc(C(=O)O)c(C)c2)cc1Cl` [AAA-019, 4-(3,5-Dichloro-4-ethoxybenzamido)-2-methylbenzoic acid], the RARγ activity ratio at RARγ is listed as 136. Also, on RARα, the “Improvement (RARα activity ratio)” value is recorded as ~100-fold and the “Improvement (RARα/RARβ ratio)” value is ~12-fold. Further, the RARβ activity ratio at RARβ was determined as 74.
Take `CCOc1c(Cl)cc(NC(=O)c2ccc(C(=O)O)cn2)cc1Cl` [AAA-020, 6-(3,5-Dichloro-4-ethoxyphenylcarbamoyl)nicotinic acid]: at RARγ, the RARγ activity ratio entry was “inactive”. For the same compound, on RARα, the “RARα/RARβ ratio (*)” value is given as 2.0 and the RARα activity ratio stood at 108. Also, at RARβ, the RARβ activity ratio was found to be 214.
As for `CCOc1c(F)cc(NC(=O)c2ccc(C(=O)O)cc2)cc1F` [AAA-021, 4-(4-Ethoxy-3,5-difluorophenylcarbamoyl)benzoic acid], the RARα activity ratio at RARα was 760.
In the case of `CCOc1c(Cl)cc(C(=O)Nc2cc(F)c(C(=O)O)c(F)c2)cc1C(F)(F)F` [AAA-022, 4-(3-Chloro-4-ethoxy-5-(trifluoromethyl)benzamido)-2,6-difluorobenzoic acid], the RARγ activity ratio entry at RARγ was “inactive”. The “increase in RARα activity” value at RARα (compared with XXX-02) came to 5 fold. At RARα, the “RARα/RARβ ratio (*)” value is given as over 50 and the RARα activity ratio came out at 448. On RARβ, the RARβ activity ratio result is “inactive”.
With `CCOc1c(Br)cc(C(=O)Nc2ccc(C(=O)O)cc2)cc1Br` [AAA-023, 4-(3,5-Dibromo-4-ethoxybenzamido)benzoic acid], the RARγ activity ratio on RARγ is given as 62370. Besides, the RARβ activity ratio on RARβ is reported as 404.
For the compound `CCOc1c(Cl)cc(C(=O)Nc2ccc(C(=O)O)cc2)cc1OC` [AAA-024, 4-(3-Chloro-4-ethoxy-5-methoxybenzamido)benzoic acid], the RARγ activity ratio on RARγ turned out to be 27200. In addition, at RARα, the “RARα/RARβ ratio (*)” value is 12.2 and the RARα activity ratio is 66. Also, the RARβ activity ratio at RARβ is on record as 805.
`CCOc1c(Cl)cc(C(=O)Nc2ccc(C(=O)O)cn2)cc1Cl` [AAA-027, 6-(3,5-Dichloro-4-ethoxybenzamido)nicotinic acid]: on RARα, the “RARα/RARβ ratio (*)” value is on record as over 5 and the RARα activity ratio worked out at 260. On RARβ, the RARβ activity ratio result was “inactive”.
On to `COc1c(Cl)cc(C(=O)Nc2ccc(C(=O)O)c(F)c2)cc1C(F)(F)F` [AAA-066, 4-(3-Chloro-4-methoxy-5-(trifluoromethyl)benzamido)-2-fluorobenzoic acid], for which, on RARα, the “RARα/RARβ ratio (*)” value turned out to be 236 and the RARα activity ratio is on record as 32. Besides, the RARβ activity ratio on RARβ amounted to 7558.
As to `CCOc1ccc(C(=O)Nc2cc(F)c(C(=O)O)c(F)c2)cc1C(F)(F)F` [XXX-02, 4-(4-Ethoxy-3-(trifluoromethyl)benzamido)-2,6-difluorobenzoic acid, reference compound], the RARα activity ratio at RARα was determined as 2242.
